{
  "source": "patent US20260001910A1",
  "about": "“PEPTIDES AND USES THEREOF” (PreveCeutical Medical Inc., priority 2021, published 2026)",
  "key": {"recombinant MMP-2": {"molecular_target": "T1, recombinant MMP-2 (Homo sapiens, UniProt P08253)", "T1 construct": "purchased ab139446", "T1 sequence (P08253 110-446 limits assumed)": "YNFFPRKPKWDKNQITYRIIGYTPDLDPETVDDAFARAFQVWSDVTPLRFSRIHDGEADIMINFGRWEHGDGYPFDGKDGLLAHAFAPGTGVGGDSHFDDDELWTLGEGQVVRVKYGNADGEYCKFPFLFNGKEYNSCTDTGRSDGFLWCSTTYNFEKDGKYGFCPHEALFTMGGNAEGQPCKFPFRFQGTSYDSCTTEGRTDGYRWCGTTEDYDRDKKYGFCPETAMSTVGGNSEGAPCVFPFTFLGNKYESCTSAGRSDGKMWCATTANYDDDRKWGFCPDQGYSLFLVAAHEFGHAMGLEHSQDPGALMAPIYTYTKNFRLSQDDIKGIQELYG", "assay": "MMP-2 Inhibitor Screening Assay Kit (colorimetric)", "assay_type": "biochemical", "conditions": "lower % = higher inhibitory activity", "experimental": "MMP-2 is an important target for inhibitor screening due to its involvement in cancer growth, angiogenesis, and metastasis. The MMP-2 screening assay was carried out with a commercially available MMP-2 Inhibitor Screening Assay Kit (Colorimetric, Catalog: ab139446) based on the manufacturers protocol. This assay is based on quantification of recombinant MMP-2 activity using a colorimetric assay (MMP-2 degrades a chromogenic substrate). The assay provides NNGH (N-isobutyl-N-(4-methoxyphenylsulfonyl) glycyl hydroxamic acid), a small molecule inhibitor, as a positive control (NNGH). […] Each determination was run in duplicate.\nBriefly, MMP Substrate and MMP Inhibitor were warmed to room temperature to thaw DMSO. MMP Inhibitor (NNGH), MMP-2 substrate and MMP-2 enzyme were diluted with assay buffer to required concentration. 20 μL of MMP-2 enzyme and MMP-2 inhibitor (peptides, Chlorotoxin and NNGH) was added, then 50 μL of assay buffer was added and the reaction mixture incubated at 37° C. for 1 h. After incubation, 10 μL of MMP Substrate was added to start reaction. The reactions were continuously read at 412 nm in a microplate reader. Data was recorded at 1 min. time intervals for 10 to 20 min. The data as was plotted as optical density (OD) versus time for each sample. The reaction velocity (V) was obtained in OD/min: determine the slope of a line fit to the linear portion of the data plot using an appropriate routine. Then using the equation above the inhibitor % activity remaining was calculated. The control was without inhibitor."}, "[1]": {"tested_on": "GBM cells (U251, U87 and 081024 cells)", "assay": "Binding/internalization of biotinylated peptide, confocal fluorescence microscopy", "assay_type": "cell-based, human", "conditions": "0.5 mM labelled peptide", "experimental": "FIG. 1 provides fluorescence staining of biotinylated peptide SEQ ID NO. 1 after 6 hours cell exposure (U251 cells and U87 cells) or 5 min cell exposure (081024 oncospheres). Upper right-hand panel: U251 cells, middle right-hand panel, U87 cells, lower right-hand panel, 081024 oncospheres. No peptide negative control (left side of each panel). […] Nuclei appear blue due to DAPI staining. Images were captured using a 100X objective and a Olympus FV3000 confocal microscope\nTo document binding and/or internalization of the peptides to the cells, biotinylated derivatives of the peptides were synthesised to allow detection by Cy3-conjugated avidin staining using confocal fluorescence microscopy.\nU87 and U251 cells were seeded on 8-chamber polystyrene vessel tissue culture-treated glass slides (Falcon). After 24h, cells were incubated with biotinylated peptide (0.5 mM) containing serum free media for 5 min and 6 h. […] Cells were then rinsed and mounted on microscopic slides with DAPI-containing mounting medium for confocal fluorescence imaging analysis.\nThe ability of SEQ ID NO. 41 to bind and/or enter GBM cells was evaluated. In a first set of experiments, adherent GBM cells and non-adherent GBM cells were exposed to 0.5 mM labelled peptide for 6 h, processed and analysed by confocal immunofluorescence microscopy. […]"}, "U87 cells": {"tested_on": "U87 cells", "conditions": "U87, 1 μM, 24h", "description": "(§1) This assay, described in more detail below, is an in vitro surrogate for measurement of the in vivo invasion by tumour cells of their environment.\n(§2) The cell invasion assay employs a simplified Boyden chamber-like design that consists of two chambers separated by a filter (an 8 μm polycarbonate (PC) membrane) coated with basement membrane or different extracellular matrix components. The cell suspension is placed in the top chamber and incubated in the presence of test media containing specific chemo-attractants in the bottom chamber. Cells migrate from the top chamber to the bottom of the filter by degrading the coating over the filter pores. Detection of cell invasion is quantified using Calcein AM. Cell dissociation/Calcein AM solution is placed in the bottom chamber to dissociate the migrating cells from the filter. Calcein AM is internalized by the cells, and intracellular-esterases cleave the aceto-methylester (AM) moiety.\n(§3) The filter was coated with PathClear® growth factor reduced BME.\n(§4) Cell invasion was determined using CultureCoat® 96 Well Medium BME Cell Invasion assay. Briefly, the cells were pre-starved 24h before harvest. Then seeding 25,000 per well of cell in the upper chamber with serum free medium together different concentration of peptide. […] After 24h incubation, the invading cells were measured by Calcein AM and calculated based on standard curve."}, "U251 cells": {"tested_on": "U251 cells", "conditions": "U251, 1 μM, 24h", "description": "as §1, §2, §3, §4"}, "081024 oncospheres": {"tested_on": "081024 oncospheres", "conditions": "081024, 1 μM, 24h"}},
  "data": [
    {"compound": "COc1ccc(S(=O)(=O)N(CC(=O)NO)CC(C)C)cc1", "note": "[NNGH, N-isobutyl-N-(4-methoxyphenylsulfonyl) glycyl hydroxamic acid, reference compound]", "values": [
      {"measurement": "% inhibition (MMP-2 inhibitor screening)", "setting": "recombinant MMP-2; 1.3 μM", "value": 2.29, "unit": "%"}
    ]},
    {"compound": "Biotin-tyr-gly-gly-phe-leu-arg-arg [SEQ ID NO. 41]", "values": [
      {"measurement": "binding/entry into GBM cells, Cy3 staining", "setting": "[1]; 5 minutes exposure, U251, U87 and 081024 cells", "value": "already internalised"},
      {"measurement": "binding/entry into GBM cells, Cy3 staining", "setting": "[1]; 6 h exposure", "value": "bright intracellular fluorescence"}
    ]},
    {"compound": "Chlorotoxin", "values": [
      {"measurement": "Invasion Inhibition Index (%)", "setting": "U87 cells", "value": 39.5, "unit": "%"},
      {"measurement": "Invasion Inhibition Index (%)", "setting": "U251 cells", "value": 28.50, "unit": "%"},
      {"measurement": "% inhibition (MMP-2 inhibitor screening)", "setting": "recombinant MMP-2; 1 μM", "value": 67.94, "unit": "%"},
      {"measurement": "Invasion Inhibition Index (%)", "setting": "081024 oncospheres", "value": 45.0, "unit": "%"}
    ]}
  ]
}
